We go through 17 compounds from patent US10323018B2 (Millennium Pharmaceuticals, Inc., priority 2015, dated 2019).

The target of one test is hNAMPT protein (Homo sapiens (Human), UniProt P43490). The experiment in a line: NAMPT enzyme assay (TR-FRET/HTRF with BodiPY ligand). The test is classed as binding. The note with it: for inhibition at 1 µM: NAMPT inhibition at compound concentration 1 μM, read-out: Percent Inhibition; for IC50: NAMPT inhibition, IC50 range class. From the text:
As discussed above, the invention provides compounds that are useful as inhibitors of the enzyme NAMPT. The NAMPT inhibition of a compound of the invention can be measured using a variety of methods known in the art. For example, the ability of a compound of the invention to inhibit NAMPT enzyme activity can be measured using a homogeneous time resolved fluorescence (HTRF) assay using hNAMPT protein and anti 6His-Tb in buffer treated with a compound of the invention (or control e.g., DMSO) and BodiPY ligand. The TR-FRET signal can be measured using a high throughput microplate reader (e.g., Pherastar). Excitation can be carried out at 320 nm. The percent inhibition value at a single concentration of compound of the invention can be calculated relative to a control treated sample. A concentration response curve can be generated for each compound of the invention and the curve fitted to generate an IC50 value. […] To measure the inhibition of NAMPT activity hNAMPT protein stock and anti 6His-Tb (Cisbio; Cat. No. […]TLB) is diluted to 3× final concentration with assay buffer (50 mM Tris-HCl (pH 7.5), 1 mM DTT, 100 mM NaCl, 10 mM MgCl2, 0.005% Tween 20). To this solution is added a test compound or vehicle control (DMSO) and BodiPY ligand (structure below). The plate is shaken for 1-2 min sealed and incubated for 1 h at rt in the dark. The TR-FRET signal is measured using BMG Pherastar (Lanthascreen protocol on BMG Pherastar). Excitation was carried out at 320 nm, and the ratio of emission of BodiPY (520 nm) to terbium (486 nm) was determined. Concentration response curves are generated by calculating the excitation increase in test compound-treated samples relative to DMSO-treated controls. For the assay method described above, test compound percent inhibition values at a single concentration are calculated relative to control (DMSO) treated samples. Compound concentration response curves are fitted to generate IC50 values from those curves. One skilled in the art will appreciate that these values generated either as percentage inhibition at a single concentration or IC50 values are subject to experimental variation.
Background: TR-FRET usually uses a lanthanide donor and a delayed reading to cut background.

For the next test, the system named is PC3 cells. The experiment in a line: PC3 growth inhibition (Cell-titer glo, 72 hours). The format is cell-based. The note with it: Homo sapiens, PC-3, 72 h, read-out: Percent Viability, PC3 cells, compound concentration 1.667 μM, 72 hours. How it is done: The invention also provides compounds that inhibit cell growth. The ability of a compound of the invention to inhibit the growth of cells can be measured using a variety of methods known in the art. For example, the ability of a compound of the invention to inhibit the growth of PC3 cells can be measured. PC3 cells can be plated and incubated overnight under CO2. For each measurement, a compound of the invention (or vehicle e.g., DMSO) can be diluted with AIM serum free medium and added to the cell plate. The cell plate can then be incubated for 72 h under CO2. Cell-titer glo solution can be added and the plates can be incubated protected from light and the amount of luminescences can be measured. Concentration response curves can be generated by calculating the luminescence increase in test compound treated samples relative to DMSO-treated controls. Percentage remaining viability values at a single concentration can be measured. Growth inhibition (GI50) or cell viability (LD50) values can be determined from thoses curves. In one embodiment, compounds of the invention have a percent viability in PC3 line @ 1.667 uM of <1%. In one embodiment, compounds of the invention have a percent viability in PC3 line @ 1.667 uM of <2%. In one embodiment, compounds of the invention have a percent viability in PC3 line @ 1.667 uM of <3%. In one embodiment, compounds of the invention have a percent viability in PC3 line @ 1.667 uM of <4%. In one embodiment, compounds of the invention have a percent viability in PC3 line @ 1.667 uM of <5%. In one embodiment, compounds of the invention have a percent viability in PC3 line @ 1.667 uM of <10%. In one embodiment, compounds of the invention have a percent viability in PC3 line @ 1.667 uM of <50%.
To measure PC3 growth inhibition, PC3 cells that were maintained in RPMI1640 growth medium (Life Technologies; Cat. No. 11875) at 37° C. under 5% CO2 are trypsinized and diluted at a density of 8×10^4 cells/ml, 25 ul per well of cells and plated in 384-well black tissue culture plate. The cells are incubated overnight at 37° C. under 5% CO2. For each measurement, a test compound or vehicle DMSO control is diluted with AIM serum free medium and added to the cell plate. The cell plate is incubated for 72 hours at 37° C. under 5% CO2. 25 μl Cell-titer glo solution (Promega; Cat. No. G8462) is added and the cell plates are incubated for 10 minutes protected from light. The luminescence is measured. Concentration response curves are generated by calculating the luminescence increase in test compound-treated samples relative to DMSO-treated controls. Percentage remaining viability values at a single concentration, growth inhibition (GI50) or cell viability (LD50) values are determined from those curves. One skilled in the art will appreciate that these values are subject to experimental variation.

Each structure is given as a SMILES string. Some results are limits rather than exact numbers.

What is called inhibition is how much of the control response was suppressed. What is called IC50 is the concentration that gives 50% inhibition. Higher therefore signals weaker potency in that assay.

Chain of hNAMPT protein (P43490 whole entry): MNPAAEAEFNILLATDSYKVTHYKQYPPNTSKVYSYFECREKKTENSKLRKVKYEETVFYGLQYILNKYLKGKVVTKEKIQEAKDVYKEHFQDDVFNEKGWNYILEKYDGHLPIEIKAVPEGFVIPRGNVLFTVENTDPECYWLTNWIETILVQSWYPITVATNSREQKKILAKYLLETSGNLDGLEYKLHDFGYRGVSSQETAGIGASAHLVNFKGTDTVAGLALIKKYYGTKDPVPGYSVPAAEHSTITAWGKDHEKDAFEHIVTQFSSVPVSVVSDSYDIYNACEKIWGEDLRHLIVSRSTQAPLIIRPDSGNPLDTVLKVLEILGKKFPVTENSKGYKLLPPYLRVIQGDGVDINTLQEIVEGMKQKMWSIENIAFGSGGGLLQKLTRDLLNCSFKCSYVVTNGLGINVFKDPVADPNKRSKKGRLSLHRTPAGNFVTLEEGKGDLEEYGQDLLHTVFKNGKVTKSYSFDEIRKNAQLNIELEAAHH

For `CCOc1cc(-c2ccc(OC)nc2C)nc2cc(C(=O)NCCCc3nnc[nH]3)ccc12` [Compound I-138, 4-ethoxy-2-(6-methoxy-2-methylpyridin-3-yl)-N-[3-(4H-1,2,4-triazol-3-yl)propyl]quinoline-7-carboxamide], on hNAMPT protein, the inhibition at 1 µM stood at 89% and the IC50 was in the range of 50 to 100 nM. In addition, in the test with PC3 cells, the viability at 1.667 µM was found to be 2%.
Take `COc1cc(-c2nc(-c3ccc(F)cc3)nc3cc(C(=O)NCCCc4ncc[nH]4)ccc23)ccn1` [Compound I-196, 2-(4-fluorophenyl)-N-[3-(1H-imidazol-2-yl)propyl]-4-(2-methoxypyridin-4-yl)quinazoline-7-carboxamide]: at hNAMPT protein, the inhibition at 1 µM was determined as 100% and the IC50 was less than 10 nM. Further, the viability at 1.667 µM in the test with PC3 cells amounted to 1%.
The matching figures for `CCOc1cc(-c2ccc(F)cc2)nc2cc(C(=O)NCCc3cn(C)cn3)ccc12` [Compound I-6, 4-ethoxy-2-(4-fluorophenyl)-N-[2-(1-methyl-1H-imidazol-4-yl)ethyl]quinoline-7-carboxamide]: 94%, 50 to 100 nM and 1%.
The matching figures for `CCCc1nc(-c2ccc(Cl)cc2)nc2cc(C(=O)NCC3CC3c3ncc[nH]3)ccc12` (racemic) [Compound I-59, 2-(4-chlorophenyl)-N-{[trans-(1,2)-2-(1H-imidazol-2-yl)cyclopropyl]methyl}-4-propylquinazoline-7-carboxamide]: 90%, 50 to 100 nM and 2%.
On the same counts, the results for `CCN(C)c1nc(-c2ccc(F)cc2)nc2cc(C(=O)NCCCc3ncc[nH]3)ccc12` [Compound I-39, 4-[ethyl(methyl)amino]-2-(4-fluorophenyl)-N-[3-(1H-imidazol-2-yl)propyl]quinazoline-7-carboxamide] are 96%, 10 to 50 nM and 2%.
As to `CCOc1nc(-c2ccc(F)cc2)nc2cc(C(=O)NCC(C)Cc3ncc[nH]3)ccc12` (stereo not drawn) [Compound I-18, 4-ethoxy-2-(4-fluorophenyl)-N-[3-(1H-imidazol-2-yl)-2-methylpropyl]quinazoline-7-carboxamide], on hNAMPT protein, the inhibition at 1 µM turned out to be 99% and the IC50 is 10 to 50 nM. In addition, in the test on PC3 cells, the viability at 1.667 µM is 0%.
As to `CCOc1cc(-c2ccc(OC)nc2)nc2cc(C(=O)NCCc3nc[nH]n3)ccc12` [Compound I-186, 4-ethoxy-2-(6-methoxypyridin-3-yl)-N-[2-(1H-1,2,4-triazol-3-yl)ethyl]quinoline-7-carboxamide], on hNAMPT protein, the inhibition at 1 µM worked out at 99% and the IC50 lay within 10 to 50 nM. Moreover, the viability at 1.667 µM in the test on PC3 cells turned out to be 4%.
On to `CCOc1cc(-c2ccc(=O)n(C)c2)nc2cc(C(=O)NCCc3c[nH]nc3C)ccc12` [Compound I-98, 4-ethoxy-2-(1-methyl-6-oxo-1,6-dihydropyridin-3-yl)-N-[2-(3-methyl-1H-pyrazol-4-yl)ethyl]quinoline-7-carboxamide], for which, on hNAMPT protein, the inhibition at 1 µM was 99% and the 50% inhibitory concentration (IC50) was 50 to 100 nM. Also, the viability at 1.667 µM in the test on PC3 cells came to 1%.
Take `CCOc1nc(-c2ccc(F)cc2)nc2cc(C(=O)NCCCc3ccnnc3)ccc12` [Compound I-29, 4-ethoxy-2-(4-fluorophenyl)-N-[3-(pyridazin-4-yl)propyl]quinazoline-7-carboxamide]: at hNAMPT protein, the inhibition at 1 µM came out at 100% and the IC50 is less than 10 nM. The viability at 1.667 µM in the test with PC3 cells turned out to be 1%.
On the same counts, the results for `CCOc1cc(-c2ccnc(C)c2)nc2cc(C(=O)NCCc3nnc[nH]3)ccc12` [Compound I-172, 4-ethoxy-2-(2-methylpyridin-4-yl)-N-[2-(4H-1,2,4-triazol-3-yl)ethyl]quinoline-7-carboxamide] are 71%, greater than 100 nM and 6%.
For `CCOc1cc(-c2ccc(F)cc2)nc2cc(C(=O)NCCCc3cncn3C)ccc12` [Compound I-224, 4-ethoxy-2-(4-fluorophenyl)-N-[3-(1-methyl-1H-imidazol-5-yl)propyl]quinoline-7-carboxamide], on hNAMPT protein, the inhibition at 1 µM was greater than 99% and the half-maximal inhibitory concentration (IC50) was less than 10 nM. Moreover, the viability at 1.667 µM with PC3 cells was determined as 2%.
On the same counts, the results for `CCOc1cc(-c2ccc(F)cc2OC)nc2cc(C(=O)NCCCc3nnc[nH]3)ccc12` [Compound I-165, 4-ethoxy-2-(4-fluoro-2-methoxyphenyl)-N-[3-(4H-1,2,4-triazol-3-yl)propyl]quinoline-7-carboxamide] are 99%, 10 to 50 nM and 1%.
Take `CCOc1nc(-c2ccc(Cl)cc2)nc2cc(C(=O)NCCCc3ncc[nH]3)ccc12` [Compound I-38, 2-(4-chlorophenyl)-4-ethoxy-N-[3-(1H-imidazol-2-yl)propyl]quinazoline-7-carboxamide]: on hNAMPT protein, the inhibition at 1 µM was greater than 99% and the IC50 was less than 10 nM. Further, the viability at 1.667 µM in the test with PC3 cells came out at 2%.
The matching figures for `CCOc1cc(-c2cccc(C(F)(F)F)c2)nc2cc(C(=O)NCCCc3nnc[nH]3)ccc12` [Compound I-215, 4-ethoxy-N-[3-(4H-1,2,4-triazol-3-yl)propyl]-2-[3-(trifluoromethyl)phenyl]quinoline-7-carboxamide]: 93%, 50 to 100 nM and 1%.
`CCCc1nc(-c2ccc(Cl)cc2)nc2cc(C(=O)N[C@H]3C[C@@H](c4ncc[nH]4)C3)ccc12` [Compound I-3, 2-(4-Chlorophenyl)-N-[cis-3-(1H-imidazol-2-yl)cyclobutyl]-4-propyl-quinazoline-7-carboxamide]: at hNAMPT protein, the inhibition at 1 µM is 94% and the IC50 is 10 to 50 nM. In addition, the viability at 1.667 µM in the test with PC3 cells is 2%.
The matching figures for `CCOc1cc(-c2ccc(F)cc2)nc2cc(C(=O)NCCn3cncn3)ccc12` [Compound I-55, 4-ethoxy-2-(4-fluorophenyl)-N-[2-(1H-1,2,4-triazol-1-yl)ethyl]quinoline-7-carboxamide]: 93%, 50 to 100 nM and 86%.
The matching figures for `CCOc1cc(-c2cc(F)ccc2OC)nc2cc(C(=O)NCCc3cnn[nH]3)ccc12` [Compound I-184, 4-ethoxy-2-(5-fluoro-2-methoxyphenyl)-N-[2-(1H-1,2,3-triazol-5-yl)ethyl]quinoline-7-carboxamide]: 91%, 50 to 100 nM and 6%.
